Measured values as given in patent US4758579A, “Fluoroalkoxy substituted benzimidazoles useful as gastric acid secretion inhibitors” (BYK Gulden Lomberg Chemische Fabrik GmbH, priority 1984, dated 1988).

Key:
[1] = tested on: formation of gastric lesions; test: Antiulcerogenic action in Shay rats: protective action on the stomach (lesion index after pylorus ligature and oral acetylsalicylic acid); type: in vivo; conditions: rat, p.o., pylorus ligature (4 hours; Shay rat) + 100 mg/kg acetylsalicylic acid, dose reducing lesion index by 50% vs control, read-out: Protective action on the stomach (rat) inhibition of the lesion index ED50
Description: (§1) The compounds according to the invention investigated appear in the following table:
(§2) The influence of the compounds investigated on the formation of gastric lesions triggered by pylorus ligature (4 hours; Shay rat) and oral administration of 100 mg/kg of acetylsalicylic acid on the inhibition of gastric secretion (HCl) in rats during 4 hours is shown in the following table:
(§3) The antiulcerogenic action was tested in Shay rats:
(§4) Ulcers were provoked in rats which had fasted for 24 hours (female, 180-200 g, 4 animals per cage on a high grid) by pylorus ligature (under diethyl ether anesthesia) and oral administration of 100 mg/10 ml/kg of acetylsalicylic acid. The substances to be tested are administered orally (10 ml/kg) one hour before the pylorus ligature. The wound is closed by means of Michel clamps. 4 hours thereafter, the animals are sacrificed under ether anesthesia by atlas dislocation and the stomach is resected. The stomach is opened longitudinally and fixed to a cork plate, after first determining the amount of secreted gastric juice (volume) and later its HCl content (titration with sodium hydroxide solution). The number and size (=diameter) of ulcers present are determined with a stereomicroscope with 10-fold magnification. The product of the degree of severity (according to the following points scale) and number of ulcers serves as the individual lesion index.
ulcer diameter 0.1-1.4 mm
(§5) The reduction in the average lesion index of each treated group compared with that of the control group (=100%) serves as a measure of the antiulcerogenic effect.

[2] = tested on: HCl secretion in the stomach; test: Inhibition of gastric secretion (HCl) in the stomach of the Shay rat over 4 hours; type: in vivo; conditions: total of 4 hours; for ED25 / ED50: po; for ED25: dose reducing HCl secretion by 25% vs control; for ED50: dose reducing HCl secretion by 50% vs control; for % inhibition of HCl secretion: after administration of the antiulcerous ED50
Description: as §1, §2
ED25+ and ED50+ = dose which reduces the lesion index and the HCL
secretion (over 4 hours) in the rat stomach by 25% and 50% in the treated
group in comparison with the control group.
(++) = after administration of the antiulcerous ED50
as §3, §4, §5

Row | SMILES | ED50 [1] | ED25 [2] | ED50 [2] | % inhibition of HCl secretion [2]
1 | COc1cnc(C[S+]([O-])c2nc3cc(OC(F)(F)F)ccc3[nH]2)cc1OC (centres unmarked) [Serial No. 1, 2-[(4,5-Dimethoxy-2-pyridyl)methylsulfinyl]-5-trifluoromethoxy-1H-benzimidazole] | 0.6 mg/kg | 1 mg/kg | ~3 mg/kg | 15%
2 | COc1cnc(C[S+]([O-])c2nc3cc(OC(F)(F)F)ccc3[nH]2)c(C)c1OC (centres unmarked) [Serial No. 2, 2-[(4,5-Dimethoxy-3-methyl-2-pyridyl)methylsulfinyl]-5-trifluoromethoxy-1H-benzimidazole] | 0.8 mg/kg | 0.7 mg/kg | 1.7 mg/kg | 25%
3 | COc1cnc(C[S+]([O-])c2nc3cc(OC(F)(F)C(F)F)ccc3[nH]2)cc1OC (centres unmarked) [Serial No. 3, 2-[(4,5-dimethoxy-2-pyridyl)methylsulfinyl]-5-(1,1,2,2-tetrafluoroethoxy)-1H-benzimidazole] | 0.6 mg/kg | ~1 mg/kg | 3.4 mg/kg | 18%
4 | COc1cnc(CSc2nc3cc4c(cc3[nH]2)OC(F)(F)O4)cc1OC [Serial No. 4, 2,2-difluoro-6-[(4,5-dimethoxy-2-pyridyl)methylthio]-5H-[1,3]-dioxolo[4,5-f]benzimidazole] | 3.5 mg/kg | 3 mg/kg | 6.5 mg/kg | 28%
5 | COc1cnc(C[S+]([O-])c2nc3cc4c(cc3[nH]2)OC(F)(F)O4)cc1OC (centres unmarked) [Serial No. 5, 2,2-Difluoro-6-[(4,5-dimethoxy-2-pyridyl)methylsulfinyl]-5H-[1,3]-dioxolo[4,5-f]benzimidazole] | ~1 mg/kg | 1 mg/kg | 3 mg/kg | 25%
